How the values were obtained:
[1] = Unbound brain-to-plasma concentration ratio in CD rat 1 to 100 mg/kg, po measured after 120 mins by LC/MS/MS analysis; type: ADME, organism-based; conditions: brain and plasma (unbound), dose 1-100 mg/kg, read-out: K(p,uu,brain)
[2] = Unbound brain-to-plasma concentration ratio in rat at 2.5 uM incubated for 4 hrs by equilibrium dialysis method; type: ADME, cell-free; conditions: brain and plasma (unbound), read-out: K(p,uu,brain)
[3] = In vivo inhibition of LRRK2 in CD rat assessed as reduction in phosphorylation at Ser935 residue in striatum at 10 mg/kg, po measured after 2 hrs by MSD assay; type: functional
[4] = Unbound brain-to-plasma concentration ratio in non-human primates administered orally and measured after 120 mins by LC/MS/MS analysis; type: ADME; conditions: po, read-out: K(p,uu,brain)
[5] = test system: human MDR1 (P-gp); assay: Efflux ratio of apparent permeability across basolateral to apical side over apical to basolateral side in human MDR1-transfected dog MDCKII-MDR1 cells at 0.1 to 1 uM measured after 3 hrs by LC/MS/MS analysis; type: ADME, cell-based, Canis lupus familiaris; conditions: MDCK-MDR1, dose 0.1-1 µM
[6] = Unbound brain-to-plasma concentration ratio in non-human primates by positron emission tomography; type: ADME; conditions: brain and plasma (unbound), read-out: K(p,uu,brain)

| Compound | Kp uu at 2 h [1] | Kp uu at 4 h, 2.5 µM [2] | inhibition in vivo at 10 mg/kg [3] [%] | Kp uu at 2 h [4] | efflux ratio at 3 h, up to 1 µM [5] | Kp uu [6] |
| --- | --- | --- | --- | --- | --- | --- |
| C[C@@H]1CN(c2cc(-c3n[nH]c4ccc(OC5(C)CC5)cc34)ncn2)C[C@H](C)O1 [MLi-2] | 0.7 | 0.49 | 93 | 0.37 | – | – |
| COc1cc2ncnc(Nc3cccc(Cl)c3F)c2cc1OC(=O)N1CCN(C)C[C@H]1C [AZD-3759] | – | 1.3 | – | – | 0.41 | 0.52 |

— ChEMBL document CHEMBL5042510, “Structure-Guided Discovery of Aminoquinazolines as Brain-Penetrant and Selective LRRK2 Inhibitors” (J Med Chem, 2022)
